Square brackets hold non-standard residues; d marks the D form. Peptide text beside a SMILES is read from it. * marks the point of attachment. Sta = CC(C)C[C@H](N)[C@@H](O)CC(=O)O; Isovaleryl = CC(C)CC(=O)*
Experiments:
M1200 strain = assay: Inhibitor studies on FGF21 production strain M1200 in 24 well culture; assay type: cell-based, Trichoderma reesei; details: M1200 24 well culture, inhibitors 10 μM, SBTI 0.1 mg/ml; for FGF21 expression, lower band / FGF21 expression, total product / FGF21 expression, upper band: day 4 immunoblot
Excerpt: Chymostatin and SBTI are known to inhibit SLP2 and SLP7 subtilisin proteases that are still expressed in the M1200 strain. Pepstatin inhibits aspartic proteases such as PEP8, PEP11, PEP12 which are known to be secreted into the supernatant. 1,10-phenathroline targets mainly zinc metalloproteases which are secreted by Trichoderma. The M1200 strain was cultivated in 24 well format in TrMM with 10 g/L yeast extract, 20 g/L cellobiose, 10 g/L sorbose, PIPPS buffered at pH 4.5. Chymostatin, phenathroline, and pepstatin were used at a final concentration of 10 μM and SBTI was used at 0.1 mg/ml. Each treatment was done in duplicate wells and the untreated control was cultured in 4 wells.
The cultures were started by adding 1×10^7 spores into 50 ml of culture medium and adding 3 ml of culture medium plus spores to each well (6×10^5 spores/well). 100 μl of each culture supernatant was collected on days 4, 5, and 6. The mycelium was spun down to remove only the supernatant. Orange LSB was added and the samples were heated for 5 minutes. 2 μl of the supernatant+LSB was loaded per well into 4-20% Criterion TGX gel. The gel was run and proteins were transferred to nitrocellulose membranes.
The expressed FGF21 was detected by immunoblotting as above. A commercially purchased N-terminal antibody rabbit polyclonal from Abcam (#ab66564) and C-terminal rabbit polyclonal antibody from Abcam (#ab137715) were used in some cases.

M393 strain = assay: FGF21 production by M393 in 24 well cultures treated with protease inhibitors; assay type: cell-based, Trichoderma reesei; details: M393 24 well culture, 10 μM pepstatin A added, day 6
Method: The M393 strain was grown with and without protease inhibitors pepstatin A, chymostatin, or soybean trypsin inhibitor. Independent wells were chosen for control wells where no inhibitors were added. This strain was grown in 3 ml of TrMM with diammonium citrate without ammonium sulfate, 100 mM PIPPS, 20 g/L spent grain extract, 40 g/L lactose adjusted to pH 4.5. The 24 well plates were shaken at 800 rpm at 85% humidity. The plate was covered with an air permeable membrane and the cultures were grown for 6 days.
Inhibitors were added first on day 3 and then added daily until day 6. 200 μl samples were taken from the culture wells beginning on day 3. The mycelium was spun down for 5 minutes at 13 k and the supernatant collected. From the culture supernatant 5 μl plus LSB was loaded in a 4-20% SDS PAGE gel and immunoblotting made on nitrocellulose with rabbit anti-FGF21 (2 μg/ml) and goat anti-rabbit IgG AP conjugated secondary antibody diluted 1:10,000. FGF21 standard were included on the blot for quantification.

Molecule: c1cnc2c(c1)ccc1cccnc12 [1,10-phenathroline]
- FGF21 expression, lower band (M1200 strain): 68800 Fluorescent units
- FGF21 expression, total product (M1200 strain): 69574 Fluorescent units
- FGF21 expression, upper band (M1200 strain): 774 Fluorescent units
- effect of inhibitor treatment on FGF21 forms (immunoblot) (M1200 strain): only improved the expression level of the 10 kD form

Molecule: CC(C)C[C@H](NC(=O)[C@@H](NC(=O)N[C@@H](Cc1ccccc1)C(=O)O)[C@@H]1CCN=C(N)N1)C(=O)N[C@H](C=O)Cc1ccccc1 [chymostatin]
- FGF21 expression, lower band (M1200 strain): 19500 Fluorescent units
- FGF21 expression, total product (M1200 strain): 53700 Fluorescent units
- FGF21 expression, upper band (M1200 strain): 34200 Fluorescent units
- effect of inhibitor treatment on FGF21 forms (immunoblot) (M1200 strain): improved the stability of the protein allowing a 17 kD major product

Molecule: CC(C)CC(=O)N[C@H](C(=O)N[C@H](C(=O)N[C@@H](CC(C)C)[C@@H](O)CC(=O)N[C@@H](C)C(=O)N[C@@H](CC(C)C)[C@@H](O)CC(=O)O)C(C)C)C(C)C [pepstatin, pepstatin A] (Isovaleryl-VV[Sta]A[Sta]-OH)
- FGF21 expression, lower band (M1200 strain): 51050 Fluorescent units
- FGF21 expression, total product (M1200 strain): 52660 Fluorescent units
- FGF21 expression, upper band (M1200 strain): 1610 Fluorescent units
- effect of inhibitor treatment on FGF21 forms (immunoblot) (M1200 strain): only improved the expression level of the 10 kD form
- FGF21 production (M393 strain): up to 160 mg/L

B1: SBTI: soybean trypsin inhibitor, protease inhibitor (protein, UniProt P01070 25-205, looked up)
Trypsin inhibitor A: DFVLDNEGNPLENGGTYYILSDITAFGGIRAAPTGNERCPLTVVQSRNELDKGIGTIISSPYRIRFIAEGHPLSLKFDSFAVIMLCVGIPTEWSVVEDLPEGPAVKIGENKDAMDGWFRLERVSDDEFNNYKLVFCPQQAEDDKCGDIGISIDHDDGTRRLVVSKNKPLVVQFQKLDKESL
- FGF21 expression, lower band (M1200 strain): 37050 Fluorescent units
- FGF21 expression, total product (M1200 strain): 50850 Fluorescent units
- FGF21 expression, upper band (M1200 strain): 13800 Fluorescent units
- effect of inhibitor treatment on FGF21 forms (immunoblot) (M1200 strain): only improved the expression level of the 10 kD form

— US10544440B2, “Multiple protease deficient filamentous fungal cells and methods of use thereof” (Glykos Finland OY, priority 2013, dated 2020)
